Reference: PubChem BioAssay AID248 (DTP/NCI, 2004)
Several values for one entry are separate records, joined by “and”; a condition that tells them apart may be missing. Equal values may be shown once. Toxic doses and inconclusive results are not listed.

Tested on: L1210 leukemia ip in BDF1 mice, survival T/C
Assay: NCI In Vivo Anticancer Drug Screen. Data for tumor model L1210 Leukemia (intraperitoneal) in B6D2F1 (BDF1) mice
Settings: endpoint: mean survival time, higher = longer survival
Outline: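 Transplantable tumor model; survival measured in treated vs vehicle control mice. Value = treated/control.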

[1] = dose: 100.0 mg/kg/injection, schedule: Q04DX002 (ip), vehicle: saline
[2] = dose: 50.0 mg/kg/injection, schedule: Q01DX009 (ip), vehicle: Klucel (hydroxypropylcellulose) (HPC)
[3] = dose: 100.0 mg/kg/injection, schedule: Q04DX002 (ip), vehicle: Klucel (hydroxypropylcellulose) (HPC)
[4] = dose: 200.0 mg/kg/injection, schedule: Q04DX002 (ip), vehicle: Klucel (hydroxypropylcellulose) (HPC)
[5] = dose: 400.0 mg/kg/injection, schedule: Q04DX002 (ip), vehicle: Klucel (hydroxypropylcellulose) (HPC)
[6] = dose: 100.0 mg/kg/injection, schedule: Q01DX009 (ip), vehicle: Klucel (hydroxypropylcellulose) (HPC)
[7] = dose: 100.0 mg/kg/injection, schedule: Q04DX003 (ip), vehicle: saline with Tween-80
[8] = dose: 100.0 mg/kg/injection, schedule: Q01DX001 (ip), vehicle: saline
[9] = dose: 200.0 mg/kg/injection, schedule: Q01DX001 (ip), vehicle: saline
[10] = dose: 200.0 mg/kg/injection, schedule: Q01DX009 (ip), vehicle: Klucel (hydroxypropylcellulose) (HPC)
[11] = dose: 400.0 mg/kg/injection, schedule: Q01DX009 (ip), vehicle: Klucel (hydroxypropylcellulose) (HPC)
[12] = dose: 87.5 mg/kg/injection, schedule: Q01DX009 (ip), vehicle: Klucel (hydroxypropylcellulose) (HPC)
[13] = dose: 175.0 mg/kg/injection, schedule: Q01DX009 (ip), vehicle: Klucel (hydroxypropylcellulose) (HPC)
[14] = dose: 50.0 mg/kg/injection, schedule: Q01DX001 (ip), vehicle: carboxymethylcellulose (CMC)
[15] = dose: 100.0 mg/kg/injection, schedule: Q01DX001 (ip), vehicle: carboxymethylcellulose (CMC)
[16] = dose: 200.0 mg/kg/injection, schedule: Q01DX001 (ip), vehicle: carboxymethylcellulose (CMC)
[17] = dose: 100.0 mg/kg/injection, schedule: Q04DX003 (ip), vehicle: Klucel (hydroxypropylcellulose) (HPC)
[18] = dose: 200.0 mg/kg/injection, schedule: Q04DX003 (ip), vehicle: Klucel (hydroxypropylcellulose) (HPC)
[19] = dose: 400.0 mg/kg/injection, schedule: Q04DX003 (ip), vehicle: Klucel (hydroxypropylcellulose) (HPC)
[20] = dose: 100.0 mg/kg/injection, schedule: Q01DX009 (ip), vehicle: saline with Tween-80
[21] = dose: 200.0 mg/kg/injection, schedule: Q01DX009 (ip), vehicle: saline with Tween-80
[22] = dose: 400.0 mg/kg/injection, schedule: Q01DX009 (ip), vehicle: saline with Tween-80
[23] = dose: 200.0 mg/kg/injection, schedule: Q04DX003 (ip), vehicle: saline with Tween-80
[24] = dose: 50.0 mg/kg/injection, schedule: Q01DX001 (ip), vehicle: saline

SMILES: CSC12OCC(O1)C1OC(C)(C)OC(C=O)C1O2 (stereo not given)
- T/C (dose: 50.0 mg/kg/injection, schedule: Q04DX002 (ip), vehicle: saline): 92 % of control
- T/C [1]: 95 % of control

SMILES: COc1cc(OC)c(N=CN(C)C)cc1Cl
- T/C (dose: 25.0 mg/kg/injection, schedule: Q01DX009 (ip), vehicle: Klucel (hydroxypropylcellulose) (HPC)): 104 % of control
- T/C [2]: 102 % of control
- T/C (dose: 75.0 mg/kg/injection, schedule: Q01DX009 (ip), vehicle: Klucel (hydroxypropylcellulose) (HPC)): 99 % of control and 105 % of control

SMILES: O=C(O)CCNc1ccc(Cl)cc1[N+](=O)[O-]
- T/C [3]: 97 % of control
- T/C [4]: 120 % of control

SMILES: CCC1=C(c2ccc(OC)cc2)C(C)Oc2cc(OC(C)=O)ccc21 (stereo not given)
- T/C (dose: 50.0 mg/kg/injection, schedule: Q01DX001 (sc), vehicle: steriod suspending solution): 101 % of control
- T/C (dose: 100.0 mg/kg/injection, schedule: Q01DX001 (sc), vehicle: steriod suspending solution): 101 % of control
- T/C (dose: 200.0 mg/kg/injection, schedule: Q01DX001 (sc), vehicle: steriod suspending solution): 97 % of control
- T/C (dose: 400.0 mg/kg/injection, schedule: Q01DX001 (sc), vehicle: steriod suspending solution): 103 % of control

SMILES: COC(=O)c1ccccc1NC(=O)COc1cc(Cl)c(Cl)cc1Cl
- T/C [3]: 96 % of control
- T/C [4]: 89 % of control
- T/C [5]: 86 % of control

SMILES: CC(=O)OCCN1CCCCC1
- T/C [1]: 94 % of control
- T/C (dose: 200.0 mg/kg/injection, schedule: Q04DX002 (ip), vehicle: saline): 94 % of control
- T/C (dose: 400.0 mg/kg/injection, schedule: Q04DX002 (ip), vehicle: saline): 97 % of control

SMILES: Cc1ncc(CO)c(Nc2ccccc2Cl)n1
- T/C (dose: 12.5 mg/kg/injection, schedule: Q04DX003 (ip), vehicle: Klucel (hydroxypropylcellulose) (HPC)): 88 % of control
- T/C (dose: 25.0 mg/kg/injection, schedule: Q04DX003 (ip), vehicle: Klucel (hydroxypropylcellulose) (HPC)): 102 % of control
- T/C (dose: 50.0 mg/kg/injection, schedule: Q04DX003 (ip), vehicle: Klucel (hydroxypropylcellulose) (HPC)): 98 % of control

SMILES: Cc1cncc2c(=O)n(-c3ccccc3)n(C)c12
- T/C [2]: 93 % of control
- T/C [6]: 96 % of control

SMILES: CC(C)C(C#N)(CCCCN1CCCC1)c1cccc2ccccc12 (stereo not given)
- T/C [7]: 95 % of control

SMILES: NNC(=O)NC(=O)NN
- T/C (dose: 9.61 mg/kg/injection, schedule: Q01DX Z (ip), vehicle: carboxymethylcellulose (CMC)): 103 % of control
- T/C (dose: 19.23 mg/kg/injection, schedule: Q01DX Z (ip), vehicle: carboxymethylcellulose (CMC)): 90 % of control
- T/C (dose: 38.45 mg/kg/injection, schedule: Q01DX Z (ip), vehicle: carboxymethylcellulose (CMC)): 95 % of control
- T/C (dose: 76.9 mg/kg/injection, schedule: Q01DX Z (ip), vehicle: carboxymethylcellulose (CMC)): 116 % of control
- T/C [8]: 103 % of control
- T/C [9]: 108 % of control

SMILES: CC(=O)Oc1c(OC(C)=O)c(-c2c(C)cc(C)c(Br)c2C)c(OC(C)=O)c(OC(C)=O)c1-c1c(C)cc(C)c(Br)c1C
- T/C [6]: 103 % of control
- T/C [10]: 97 % of control
- T/C [11]: 103 % of control

SMILES: Oc1ccccc1CNc1ccc(Br)cc1
- T/C (dose: 100.0 mg/kg/injection, schedule: Q04DX003 (ip), vehicle: gum acacia): 95 % of control
- T/C (dose: 200.0 mg/kg/injection, schedule: Q04DX003 (ip), vehicle: gum acacia): 95 % of control
- T/C (dose: 400.0 mg/kg/injection, schedule: Q04DX003 (ip), vehicle: gum acacia): 93 % of control

SMILES: CS(C)(C)N1C(=O)c2ccccc2C1=O
- T/C [12]: 98 % of control
- T/C [13]: 96 % of control

SMILES: CN1CCC=C(C(=O)O)C1
- T/C [14]: 101 % of control
- T/C [15]: 110 % of control
- T/C [16]: 104 % of control

SMILES: O=c1[nH]cc(CCc2ccccc2)c(=O)[nH]1
- T/C [6]: 105 % of control
- T/C [17]: 94 % of control
- T/C [10]: 96 % of control
- T/C [18]: 94 % of control
- T/C [11]: 98 % of control
- T/C [19]: 93 % of control

SMILES: Nc1ccc(Br)cc1
- T/C [20]: 100 % of control
- T/C [21]: 95 % of control
- T/C [22]: 99 % of control

SMILES: Nc1ccc(S(=O)(=O)Nc2ccc(N(CCCl)CCCl)cc2)cc1
- T/C [20]: 108 % of control
- T/C [7]: 105 % of control
- T/C [21]: 113 % of control
- T/C [23]: 103 % of control
- T/C [22]: 111 % of control
- T/C (dose: 400.0 mg/kg/injection, schedule: Q04DX003 (ip), vehicle: saline with Tween-80): 102 % of control

SMILES: Cc1ccc(C(=O)Cc2ccc(C#N)cc2)cc1
- T/C [24]: 98 % of control
- T/C [8]: 96 % of control
- T/C [9]: 104 % of control
- T/C (dose: 400.0 mg/kg/injection, schedule: Q01DX001 (ip), vehicle: saline): 98 % of control

SMILES: CCSc1ncnc2c1ncn2C1OC(CO)C(O)C1O (stereo not given)
- T/C (dose: 132.0 mg/kg/injection, schedule: Q04DX003 (ip), vehicle: saline with Tween-80): 116 % of control
- T/C [23]: 124 % of control

SMILES: N=C(N)CCc1ccccc1
- T/C (dose: 75.0 mg/kg/injection, schedule: Q04DX003 (ip), vehicle: saline): 99 % of control
- T/C (dose: 150.0 mg/kg/injection, schedule: Q04DX003 (ip), vehicle: saline): 98 % of control

SMILES: NCCCC(=O)NCCCCCCNCCCCCCNC(=O)CCCN
- T/C [24]: 98 % of control
- T/C [8]: 104 % of control

SMILES: C=COCCN1CCN(CCCN2c3ccccc3Sc3ccc(C(F)(F)F)cc32)CC1
- T/C (dose: 3.13 mg/kg/injection, schedule: Q04DX003 (ip), vehicle: saline): 102 % of control
- T/C (dose: 6.25 mg/kg/injection, schedule: Q04DX003 (ip), vehicle: saline): 102 % of control
- T/C (dose: 12.5 mg/kg/injection, schedule: Q04DX003 (ip), vehicle: saline): 107 % of control

SMILES: O=NN(CCCl)C(=O)Nc1ccc(C(F)(F)F)cc1
- T/C (dose: 4.6 mg/kg/injection, schedule: Q01DX Z (ip), vehicle: carboxymethylcellulose (CMC)): 154 % of control
- T/C (dose: 9.37 mg/kg/injection, schedule: Q01DX Z (ip), vehicle: carboxymethylcellulose (CMC)): 166 % of control
- T/C (dose: 18.75 mg/kg/injection, schedule: Q01DX Z (ip), vehicle: carboxymethylcellulose (CMC)): 190 % of control
- T/C (dose: 37.5 mg/kg/injection, schedule: Q01DX Z (ip), vehicle: carboxymethylcellulose (CMC)): 108 % of control
- T/C [14]: 151 % of control
- T/C (dose: 75.0 mg/kg/injection, schedule: Q01DX001 (ip), vehicle: carboxymethylcellulose (CMC)): 167 % of control

SMILES: NC1=NC(=O)C(c2ccccc2)(c2ccccc2)S1
- T/C [15]: 91 % of control
- T/C [6]: 97 % of control
- T/C [3]: 94 % of control
- T/C [16]: 98 % of control
- T/C [10]: 97 % of control
- T/C [4]: 90 % of control
- T/C (dose: 400.0 mg/kg/injection, schedule: Q01DX001 (ip), vehicle: carboxymethylcellulose (CMC)): 91 % of control
- T/C [11]: 97 % of control
- T/C [5]: 97 % of control

SMILES: Brc1ncc2ccccc2c1Br
- T/C [17]: 108 % of control
- T/C [18]: 94 % of control

SMILES: CCC(=O)OCc1ccc(Cl)cc1
- T/C [6]: 97 % of control
- T/C [17]: 101 % of control
- T/C [10]: 95 % of control
- T/C [18]: 96 % of control
- T/C [11]: 94 % of control
- T/C [19]: 95 % of control

SMILES: CCOCC(=O)C(C#N)c1ccc(Cl)c(Cl)c1 (stereo not given)
- T/C [15]: 94 % of control

SMILES: C[Se]c1nc2c(=O)[nH]c(N)nc2n1C1OC(CO)C(O)C1O (stereo not given)
- T/C (dose: 100.0 mg/kg/injection, schedule: Q01DX005 (ip), vehicle: saline): 107 % of control
- T/C (dose: 200.0 mg/kg/injection, schedule: Q01DX005 (ip), vehicle: saline): 102 % of control

SMILES: O=C(N/N=C\c1ccc(Cl)cc1)c1ccccc1
- T/C [7]: 99 % of control
- T/C [23]: 100 % of control

SMILES: N#CSCc1ccc(Cl)cc1
- T/C (dose: 25.0 mg/kg/injection, schedule: Q01DX009 (ip), vehicle: saline with Tween-80): 92 % of control

SMILES: O=C(Nc1cnc2ccccc2c1)Nc1cnc2ccccc2c1
- T/C [12]: 87 % of control
- T/C [13]: 97 % of control
- T/C (dose: 350.0 mg/kg/injection, schedule: Q01DX009 (ip), vehicle: Klucel (hydroxypropylcellulose) (HPC)): 89 % of control
